Biological target: T1, OX2R (Homo sapiens, UniProt O43614)
T1 construct: expressed in transfected cells; host or cells: CHO cells (membranes)
T1 sequence (O43614 1-444): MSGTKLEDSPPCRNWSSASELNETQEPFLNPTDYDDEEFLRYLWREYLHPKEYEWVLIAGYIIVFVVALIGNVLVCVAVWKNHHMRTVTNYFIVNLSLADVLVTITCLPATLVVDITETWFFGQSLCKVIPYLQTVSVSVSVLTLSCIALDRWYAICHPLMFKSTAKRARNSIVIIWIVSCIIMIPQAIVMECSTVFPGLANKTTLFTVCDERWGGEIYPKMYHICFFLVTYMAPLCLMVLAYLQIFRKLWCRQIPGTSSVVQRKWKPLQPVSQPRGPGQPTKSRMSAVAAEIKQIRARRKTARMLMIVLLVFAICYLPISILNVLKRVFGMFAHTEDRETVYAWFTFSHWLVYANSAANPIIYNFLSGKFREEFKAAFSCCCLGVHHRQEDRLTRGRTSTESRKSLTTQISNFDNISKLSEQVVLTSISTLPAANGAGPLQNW
Assay: radioligand binding assay, OX2 receptor
Settings: membranes prepared from CHO cells expressing OX2 receptor

Ki	SMILES
0.12 nM	COc1ccc(CNC(=O)c2cc(-c3cc(Cl)cc(Cl)c3)ccc2-c2cccnc2)cc1OC [1-6, 3′,5′-dichloro-N-(3,4-dimethoxybenzyl)-4-pyridin-3-ylbiphenyl-3-carboxamide]
1.3 nM	CCc1nc(CNC(=O)c2cc(-c3cncc(C)c3)ccc2-c2cnn(C)c2)ccc1OC [1-17, N-[(6-ethyl-5-methoxypyridin-2-yl)methyl]-2-(1-methyl-1H-pyrazol-4-yl)-5-(5-methylpyridin-3-yl)benzamide]

From US8399494B2, “2,5-disubstituted phenyl carboxamide orexin receptor antagonists” (Merck Sharp & Dohme Corp., priority 2008, dated 2013)
